Drawing on the NIST ThermoML archive (doi:10.1016/j.jct.2008.05.010), this text covers refractive index and mass density for six compounds.

Data set [1] can be described thus: refractive index (Na D-line) (dimensionless). The following applies: 298.15 K; 101.33 kPa; Liquid; Standard Abbe refractometry.
The conditions of data set [2]: 298.15 K; 101.33 kPa; Liquid.

SMILES strings stand for the structures. Numbers after ± are expanded uncertainties.

As a reminder, the refractive index is the speed of light in vacuum divided by its phase velocity in the sample. By mass density is commonly meant the mass of a sample divided by its volume. Consider `CC(=O)N(C)C` [N,N-dimethylethanamide], for which, in data set [1], the refractive index amounted to 1.4362 ± 0.0007. Further, the mass density in data set [2] is reported as 936.44 ± 0.13 kg/m3.
On the same counts, the results for `CNC=O` [N-methylformamide] are 1.4303 ± 0.0007 and 998.97 ± 0.39 kg/m3.
On the same counts, the results for `CC(C)=O` [acetone] are 1.3564 ± 0.0007 and 784.59 ± 0.24 kg/m3.
On the same counts, the results for `C[S+](C)[O-]` [dimethyl sulfoxide] are 1.4771 ± 0.0007 and 1095.66 ± 0.15 kg/m3.
In the case of `CN(C)C=O` [dimethylformamide], the refractive index in data set [1] was 1.4279 ± 0.0007. Besides, the mass density in data set [2] turned out to be 943.87 ± 0.26 kg/m3.
As to `NC=O` [formamide], in data set [1], the refractive index amounted to 1.4463 ± 0.0007. The mass density in data set [2] is recorded as 1129.11 ± 0.4 kg/m3.
